Source: patent publication EP1913949A1, “Modulation of substrate preference by selective translocation of the major cardiac glucose transporter Glut4” (priority 2006, dated 2008)
Read-outs that look alike come from different tables or passages of the source.

Tests used:
[1] = test system: GLUT4
[2] = test system: ACC
[3] = test system: p70 S6K
[4] = test system: p42/44 ERK
[5] = test system: heart-derived giant vesicles; assay type: biochemical, rat
[6] = test system: cardiac myocytes
[7] = test system: FABPpm; assay type: cell-based, rat
[8] = test system: cardiac myocytes; details: for effect on LCFA uptake: in the absence or in the presence of insulin or arsenite, SB202190 (10 µM), PD98059 (10 µM), rapamycin (100 nM)
[9] = test system: heart-derived giant vesicles; test: glucose uptake by giant vesicles (intrinsic transporter activity); assay type: biochemical, rat; details: for glucose uptake into giant vesicles inhibited: inhibitor 10 µM
[10] = test system: AMPK; details: 20 min
[11] = test system: Akt/PKB; assay type: cell-based, rat; details: for effect on Akt/PKB phosphorylation: 20 min
[12] = test system: p38 MAPK
[13] = test system: CD36; assay type: cell-based, rat
[14] = test system: p38 MAPK; test: cells; details: Rattus norvegicus, 20 min, read-out: increase in p38 MAPK phosphorylation
[15] = test system: cardiac myocytes; test: tissue or blood; details: Rattus norvegicus
[16] = test system: ACC; test: cells; details: Rattus norvegicus, 20 min, read-out: increase in phosphorylation of ACC
[17] = test system: AMPK; test: cells; details: Rattus norvegicus, 20 min, read-out: increase in phosphorylation of AMPK
[18] = read-out: basal glucose uptake inhibited
[19] = read-out: glucose uptake inhibited in cardiac myocytes
[20] = read-out: glucose uptake inhibited in the presence of arsenite
[21] = read-out: glucose uptake inhibited in the presence of insulin
[22] = SB202190, PD98059 10 µM, rapamycin 20 nM, wortmannin 200 nM, stimulus 5 µM oligomycin
[23] = SB202190, PD98059 10 µM, rapamycin 20 nM, wortmannin 200 nM, stimulus 100 µM arsenite
[24] = SB202190, PD98059 10 µM, rapamycin 20 nM, wortmannin 200 nM, stimulus 50 µM phenylephrine
[25] = PD98059 (10 µM), rapamycin (100 nM), wortmannin (200 nM), no stimulus
[26] = SB202190, PD98059 10 µM, rapamycin 20 nM, wortmannin 200 nM, stimulus 100 nM insulin
[27] = SB202190, SB203580, PD98059 10 µM, rapamycin 20 nM, stimulus 100 µM arsenite
[28] = 10 µM SB202190 added 20 min prior to 100 µM arsenite

sodium arsenite
content of GLUT4 in the LDM fraction decreased ([1]; 20 min): 44% | content of GLUT4 in the PM fraction increased ([1]; 20 min, 100 µM): 1.7 fold | effect on phosphorylation of ACC ([2]; 20 min): remained unaltered | increase in p70 S6K phosphorylation ([3]; 20 min, 100 µM): 3.3 ± 0.7 fold | increase in p42/44 ERK phosphorylation ([4]; 20 min, 100 µM): 2.3 ± 0.5 fold | effect on LCFA uptake into giant vesicles [5]: did not influence | deoxyglucose uptake [6]: without a further increase | effect of arsenite on glucose uptake in combination with oligomycin [6]: retained its stimulatory action | effect of arsenite on glucose uptake in insulin-stimulated cardiac myocytes [6]: ineffective | deoxyglucose uptake stimulated ([6]; cardiac myocytes, 20 min, 100 µM): 5.1 fold | distribution of FABPpm between the LDM and the PM fraction ([7]; 20 min): did not significantly influence | LCFA uptake [8]: did not increase | effect of arsenite on LCFA uptake in combination with insulin or oligomycin [8]: did not significantly alter | effect on glucose uptake into giant vesicles [9]: did not influence | effect on phosphorylation of AMPK [10]: remained unaltered | effect on Akt/PKB phosphorylation [11]: did not stimulate | increase in p38 MAPK phosphorylation ([12]; 20 min): 7.8 ± 1.8 fold | contents of CD36 in the LDM- and PM fractions ([13]; 20 min): did not significantly influence

COC[C@H]1OC(=O)c2coc3c2[C@@]1(C)C1=C(C3=O)[C@@H]2CCC(=O)[C@@]2(C)C[C@H]1OC(C)=O [wortmannin]
inhibition of oligomycin-induced ACC phosphorylation [2]: unaltered | inhibition of arsenite-induced p70 S6K phosphorylation [3]: completely blocked | inhibition of phenylephrine-induced p42/44 ERK phosphorylation [4]: unaltered | effect on arsenite-stimulated glucose uptake [6]: completely failed to inhibit | effect on basal glucose uptake [6]: did not inhibit | effect on insulin-stimulated glucose uptake [6]: largely blocked | effect on basal LCFA uptake [8]: no effect | effect on insulin-induced LCFA uptake [8]: completely blocked | effect on glucose uptake into giant vesicles [9]: did not alter | inhibition of insulin-induced Akt/PKB phosphorylation [11]: completely blocked

CC[C@H]1/C=C/C=C/C[C@@H](C)[C@H](O)[C@@](C)(O)C(=O)[C@@H](C)[C@H](O)[C@@H](C)C(=O)[C@@H](C)[C@H](O)[C@@H](C)/C=C/C(=O)O[C@@H]2[C@H](C)[C@H](CC1)O[C@]1(CC[C@H](C)[C@H](C[C@@H](C)O)O1)[C@H]2C [oligomycin]
effect on p70 S6K phosphorylation ([3]; oligomycin): did not enhance | fold induction at 5 µM [14]: 5.7 ± 1.5 | effect on p42/44 ERK phosphorylation ([4]; 20 min, 5 µM oligomycin): did not increase | fold induction at 5 µM ([15]; read-out: glucose uptake increased): 2.9 | effect on Akt/PKB phosphorylation ([11]; 5 µM oligomycin or 100 µM arsenite): did not increase | fold induction at 5 µM [16]: > 10 | fold induction at 5 µM [17]: > 10

C[S+]([O-])c1ccc(-c2nc(-c3ccncc3)c(-c3ccc(F)cc3)[nH]2)cc1 (stereo not drawn) [SB203580]
inhibition at 10 µM [15, 18]: -56% | inhibition at 10 µM [15, 19]: -56% | inhibition at 10 µM [15, 20]: -57% | inhibition at 10 µM [15, 21]: -46% | glucose uptake into giant vesicles inhibited ([9]; added 20 min prior): -46% | inhibition of arsenite-stimulated p38 MAPK phosphorylation [12]: similarly potent in blocking

COc1cccc(-c2cc(=O)c3ccccc3o2)c1N [PD98059]
inhibition of oligomycin-induced ACC phosphorylation [2, 22]: did not inhibit | inhibition of arsenite-induced p70 S6K phosphorylation [3, 23]: did not inhibit | inhibition of phenylephrine-induced p42/44 ERK phosphorylation [4, 24]: completely inhibited | effect on arsenite-stimulated glucose uptake ([6]; PD98059 (10 µM), rapamycin (100 nM), wortmannin (200 nM), 100 µM arsenite): neither PD98059 nor rapamycin affected glucose uptake | effect on insulin-stimulated glucose uptake ([6]; PD98059 (10 µM), rapamycin (100 nM), wortmannin (200 nM), insulin): neither PD98059 nor rapamycin affected glucose uptake | effect on basal glucose uptake [6, 25]: no effect | effect on LCFA uptake [8]: neither SB202190, nor PD98059 or rapamycin were able to influence | effect on glucose uptake into giant vesicles ([9]; same concentrations as in cardiac myocyte studies, added 20 min prior): did not alter | inhibition of insulin-induced Akt/PKB phosphorylation [11, 26]: did not inhibit | inhibition of arsenite-stimulated p38 MAPK phosphorylation [12, 27]: did not inhibit

CO[C@H]1C[C@@H]2CC[C@@H](C)[C@@](O)(O2)C(=O)C(=O)N2CCCC[C@H]2C(=O)O[C@H]([C@H](C)C[C@@H]2CC[C@@H](O)[C@H](OC)C2)CC(=O)[C@H](C)/C=C(\C)[C@@H](O)[C@@H](OC)C(=O)[C@H](C)C[C@H](C)/C=C/C=C/C=C/1C [rapamycin]
effect on basal glucose uptake [6, 25]: no effect

Oc1ccc(-c2nc(-c3ccncc3)c(-c3ccc(F)cc3)[nH]2)cc1 [SB202190]
effect on arsenite-induced GLUT4 translocation [1, 28]: did not affect | inhibition of oligomycin-induced ACC phosphorylation [2, 22]: did not affect | inhibition of arsenite-induced p70 S6K phosphorylation [3, 23]: did not affect | inhibition of phenylephrine-induced p42/44 ERK phosphorylation [4, 24]: did not affect | inhibition at 10 µM [15, 18]: -45% | inhibition at 10 µM [15, 19]: -33% | inhibition at 10 µM [15, 20]: -42% | inhibition at 10 µM [15, 21]: -33% | effect on subcellular distribution of FABPpm [7, 28]: did not influence | effect on LCFA uptake [8]: neither SB202190, nor PD98059 or rapamycin were able to influence | glucose uptake into giant vesicles inhibited ([9]; added 20 min prior): -27% | inhibition of insulin-induced Akt/PKB phosphorylation [11, 26]: did not affect | inhibition of arsenite-stimulated p38 MAPK phosphorylation [12, 27]: largely inhibited | effect on subcellular distribution of CD36 [13, 28]: did not influence
